Data as given in ChEMBL document CHEMBL1121882, “Approaches to vasodilating/beta-adrenergic blocking agents: examples of the dihydrolutidine type” (1981).

Experiments:
Rattus norvegicus [1] = experiment: Compound was tested for effect on arterial pressure in spontaneously hypertensive rats (SHR) at 5 mg/kg, po; assay type: functional, Artery
Rattus norvegicus [2] = experiment: Compound was tested for effect on arterial pressure in spontaneously hypertensive rats (SHR) at 1.25 mg/kg, po; assay type: functional, Artery
Rattus norvegicus [3] = experiment: Compound was tested for effect on arterial pressure in spontaneously hypertensive rats (SHR) at 20 mg/kg administered intraperitoneally; Death; assay type: functional, organism-based; design: dose 20 mg/kg; settings: Artery
Rattus norvegicus [4] = experiment: Compound was tested for effect on arterial pressure in spontaneously hypertensive rats (SHR) at 20 mg/kg, po; assay type: functional, Artery
Rattus norvegicus [5] = experiment: Compound was tested for effect on arterial pressure in spontaneously hypertensive rats (SHR) at 20 mg/kg administered intraperitoneally; assay type: functional, Artery; settings: route intraperitoneal

Row | SMILES | Max fall in MAP (Rattus norvegicus [1]) [mmHg] | Max fall in MAP (Rattus norvegicus [2]) [mmHg] | Max fall in MAP (Rattus norvegicus [3]) | further results
1 | CCOC(=O)C1=C(C)N=C(C)/C(=C(/O)OCC)C1c1ccccc1C(F)(F)F (stereo not given) | 41 |  |  | 
2 | CC(C)(C)NC[C@H](O)COc1nsnc1N1CCOCC1 [TIMOLOL] |  | -1 |  | 
3 | CCOC(=O)C1=C(C)N=C(C)/C(=C(/O)OCC)C1c1ccc(OCC(O)CNC(C)(C)C)cc1C (stereo not given) | 42 | 12 | Death | 
4 | CC(C)NCC(O)COc1cccc2ccccc12 (stereo not given) [PROPRANOLOL] | 7 |  |  | 
5 | CCOC(=O)C1=C(C)N=C(C)/C(=C(/O)OCC)C1c1ccc(OCC(O)CNC(C)(C)C)cc1 (stereo not given) | 17 |  | Death | 
6 | CCOC(=O)C1=C(C)N=C(C)/C(=C(/O)OCC)C1c1ccccc1OCC(O)CNC(C)(C)C (stereo not given) |  |  |  | Max fall in MAP (Rattus norvegicus [4]): 16 mmHg; Max fall in MAP (Rattus norvegicus [5]): 15 mmHg
